As a reminder, the EC50 is the concentration at which the effect is half-maximal.

EC50 data for 27 compounds are collected here from US11535630B2, “Apelin receptor (APJ) agonists and uses thereof” (Research Triangle Institute, priority 2015, dated 2022).

A value given as a limit tells only on which side of the number the result lay.

The target of one test is T1, apelin receptor (APJ) (Homo sapiens, UniProt P35414).
T1 sequence (P35414 1-380): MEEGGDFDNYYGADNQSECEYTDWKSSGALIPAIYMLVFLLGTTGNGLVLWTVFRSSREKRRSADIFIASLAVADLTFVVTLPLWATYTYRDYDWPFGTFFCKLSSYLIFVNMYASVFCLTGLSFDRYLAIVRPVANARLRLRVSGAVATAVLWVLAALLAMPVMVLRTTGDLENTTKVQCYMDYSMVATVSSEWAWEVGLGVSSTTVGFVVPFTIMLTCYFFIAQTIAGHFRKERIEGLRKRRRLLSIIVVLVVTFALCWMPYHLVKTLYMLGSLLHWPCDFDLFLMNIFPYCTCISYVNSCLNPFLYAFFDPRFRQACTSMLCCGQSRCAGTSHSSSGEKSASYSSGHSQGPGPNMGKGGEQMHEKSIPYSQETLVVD
Briefly: In vitro apelin agonist activity (methods of Giddings et al., Apelin-13 as positive control). It is filed as cell-based. The settings on record: EC50 (nM) Ave, in vitro apelin agonist activity, methods of Giddings et al., Apelin-13 as positive control. The text has this: Characterization of the Apelin Agonist Activity of the Compounds
1:39-47, the contents of which are hereby incorporated by reference in its entirety. Using the methods described in Giddings et al. and Apelin-13 as a positive control.
In turn, `CN(C[C@@H](CC(=O)NC1CCC1)NC(=O)c1cc(-c2ccccc2C(F)(F)F)n(C2CCCC2)n1)C1CCCCC1` [compound 547] displayed a 50% effective concentration (EC50) of 5120 nM.

Still in this test, the particulars now being: in vitro apelin agonist activity, methods of Giddings et al., Apelin-13 as positive control; read-out: EC50 (nM) Ave.
As to `O=C(O)C[C@H](CCN1CC(F)(F)C1)NC(=O)c1cc(-c2ccccc2C(F)(F)F)n(C2CCCC2)n1` [compound 534, (3S)-3-({1-cyclopentyl-5-[2-(trifluoromethyl)phenyl]-1H-pyrazol-3-yl}formamido)-5-(3,3-difluoroazetidin-1-yl)pentanoic acid], the concentration for a half-maximal effect (EC50) stood at 388 nM. Still for that read-out and setting: next, `O=C(C[C@H](CCN1CC(F)(F)C1)NC(=O)c1cc(-c2ccccc2C(F)(F)F)n(C2CCCC2)n1)NC1CCC1` [compound 535, (3S)-N-cyclobutyl-3-({1-cyclopentyl-5-[2-(trifluoromethyl)phenyl]-1H-pyrazol-3-yl}formamido)-5-(3,3-difluoroazetidin-1-yl)pentanamide]: 32 nM; `O=C(C[C@H](CCNC(=O)C1CCCC1)NC(=O)c1cc(-c2ccccc2C(F)(F)F)n(C2CCCC2)n1)NC1CCC1` [compound 536, (3S)-N-cyclobutyl-3-({1-cyclopentyl-5-[2-(trifluoromethyl)phenyl]-1H-pyrazol-3-yl}formamido)-5-(cyclopentylformamido)pentanamide]: 39 nM; `CC(F)(F)c1ccccc1-c1cc(C(=O)N[C@@H](CCN2CCC(F)(F)C2)CC(=O)O)nn1C1CCCC1` [compound 537, (3S)-3-({1-cyclopentyl-5-[2-(1,1-difluoroethyl)phenyl]-1H-pyrazol-3-yl}formamido)-5-(3,3-difluoropyrrolidin-1-yl)pentanoic acid]: 16 nM. As for `O=C(O)C[C@H](CCNC(=O)C1CCCC1)NC(=O)c1cc(-c2ccccc2C(F)(F)F)n(C2CCCC2)n1` [compound 538, (3S)-3-({1-cyclopentyl-5-[2-(trifluoromethyl)phenyl]-1H-pyrazol-3-yl}formamido)-5-(cyclopentylformamido)pentanoic acid], the EC50 was determined as 544 nM. Still for that read-out and setting: the value for `O=C(C[C@H](CCNC(=O)C1COC1)NC(=O)c1cc(-c2ccccc2C(F)(F)F)n(C2CCCC2)n1)NC1CCC1` [compound 539, (3S)-N-cyclobutyl-3-({1-cyclopentyl-5-[2-(trifluoromethyl)phenyl]-1H-pyrazol-3-yl}formamido)-5-(oxetan-3-ylformamido)pentanamide] was 176 nM; that for `NS(=O)(=O)C[C@H](CC(=O)N1CCCC(F)(F)C1)NC(=O)c1cc(-c2ccccc2C(F)(F)F)n(C2CCCC2)n1` [compound 540, 1-cyclopentyl-N-[(2S)-4-(3,3-difluoropiperidin-1-yl)-4-oxo-1-sulfamoylbutan-2-yl]-5-[2-(trifluoromethyl)phenyl]-1H-pyrazole-3-carboxamide] was 1380 nM; that for `O=C(N[C@@H](CC(=O)N1CCCC(F)(F)C1)CS(=O)(=O)NC1CCC1)c1cc(-c2ccccc2C(F)(F)F)n(C2CCCC2)n1` [compound 541, N-[(2S)-1-(cyclobutylsulfamoyl)-4-(3,3-difluoropiperidin-1-yl)-4-oxobutan-2-yl]-1-cyclopentyl-5-[2-(trifluoromethyl)phenyl]-1H-pyrazole-3-carboxamide] was 1060 nM. The same measure, in the same setting: the value for `COCCN(C)C(=O)[C@H](CCc1ccccc1)NC(=O)c1cc(-c2ccccc2C(F)(F)F)n(C2CCCC2)n1` [compound 542, (2S)-2-({1-cyclopentyl-5-[2-(trifluoromethyl)phenyl]-1H-pyrazol-3-yl}formamido)-N-(2-methoxyethyl)-N-methyl-4-phenylbutanamide] was 105 nM; that for `O=C(O)C[C@@H](NC(=O)c1cc(-c2ccccc2C(F)(F)F)n(C2CCCC2)n1)C(=O)NC1CCCCC1` [compound 544, (3R)-3-(cyclohexylcarbamoyl)-3-({1-cyclopentyl-5-[2-(trifluoromethyl)phenyl]-1H-pyrazol-3-yl]formamido)propanoic acid] was 205 nM; that for `O=C(O)C[C@H](COc1ccc(F)cc1)NC(=O)c1cc(-c2ccccc2C(F)(F)F)n(C2CCCC2)n1` [compound 545, (3R)-3-({1-cyclopentyl-5-[2-(trifluoromethyl)phenyl]-1H-pyrazol-3-yl}formamido)-4-(4-fluorophenoxy)butanoic acid] was 1230 nM. Same read-out and setting: the value for `O=C(C[C@H](COc1ccc(F)cc1)NC(=O)c1cc(-c2ccccc2C(F)(F)F)n(C2CCCC2)n1)NC1CCC1` [compound 546, (3R)-N-cyclobutyl-3-({1-cyclopentyl-5-[2-(trifluoromethyl)phenyl]-1H-pyrazol-3-yl}formamido)-4-(4-fluorophenoxy)butanamide] was 114 nM; that for `O=C(O)C[C@H](CCNC1CC(F)(F)C1)NC(=O)c1cc(-c2ccccc2C(F)(F)F)n(C2CCCC2)n1` [compound 548, (3S)-3-({1-cyclopentyl-5-[2-(trifluoromethyl)phenyl]-1H-pyrazol-3-yl}formamido)-5-[(3,3-difluorocyclobutyl)amino]pentanoic acid] was 255 nM; that for `CC1(NC(=O)C[C@H](CC(=O)N2CCCCC2)NC(=O)c2cc(-c3ccccc3C(F)(F)F)n(C3CCCC3)n2)COC1` [compound 550, (3R)-3-({1-cyclopentyl-5-[2-(trifluoromethyl)phenyl]-1H-pyrazol-3-yl}formamido)-N-(3-methyloxetan-3-yl)-5-oxo-5-(piperidin-1-yl)pentanamide] was 8680 nM. With `O=C(O)C[C@H](CCN1CCCC(F)(F)C1)NC(=O)c1cc(-c2ccccc2C(F)(F)F)n(C2CCC2)n1` [compound 552, (3S)-3-({1-cyclobutyl-5-[2-(trifluoromethyl)phenyl]-1H-pyrazol-3-yl}formamido)-5-(3,3-difluoropiperidin-1-yl)pentanoic acid], the 50% effective concentration (EC50) was found to be 167 nM. The same measure, in the same setting: next, `O=C(O)C[C@H](CCN1CCCC(F)(F)C1)NC(=O)c1cc(-c2ccccc2C(F)(F)F)n(C2CCOCC2)n1` [compound 553, (3S)-5-(3,3-difluoropiperidin-1-yl)-3-{[1-(oxan-4-yl)-5-[2-(trifluoromethyl)phenyl]-1H-pyrazol-3-yl]formamido}pentanoic acid]: 1480 nM. Same read-out and setting: next, `O=C(O)C[C@H](CCN1CCCC(F)(F)C1)NC(=O)c1cc(-c2ccc(F)cc2C(F)(F)F)n(C2CCCC2)n1` [compound 554]: 126 nM; `O=C(O)C[C@H](CCN1CCCC(F)(F)C1)NC(=O)c1cc(-c2ccc(Cl)cc2C(F)(F)F)n(C2CCCC2)n1` [compound 555, (3S)-3-({5-[4-chloro-2-(trifluoromethyl)phenyl]-1-cyclopentyl-1H-pyrazol-3-yl}formamido)-5-(3,3-difluoropiperidin-1-yl)pentanoic acid]: 1570 nM; `O=C(O)C[C@H](CCN1CCCC(F)(F)C1)NC(=O)c1cc(-c2c(Cl)cccc2C(F)(F)F)n(C2CCCC2)n1` [compound 556, (3S)-3-({-[2-chloro-6-(trifluoromethyl)phenyl]-1-cyclopentyl-1H-pyrazol-3-yl}formamido)-5-(3,3-difluoropiperidin-1-yl)pentanoic acid]: more than 10 nM. Still for that read-out and setting: the value for `O=C(O)C[C@H](CCN1CCCC(F)(F)C1)NC(=O)c1cc(-c2ccccc2C(F)(F)F)n(CC2CC2)n1` [compound 557, (3S)-3-{[1-(cyclopropylmethyl)-5-[2-(trifluoromethyl)phenyl]-1H-pyrazol-3-yl]formamido}-5-(3,3-difluoropiperidin-1-yl)pentanoic acid] was 401 nM; that for `CN(C(=O)[C@@H](CC(=O)O)NC(=O)c1cc(-c2ccccc2C(F)(F)F)n(C2CCCC2)n1)C1CCCCC1` [compound 558, (3R)-3-[cyclohexyl(methyl)carbamoyl]-3-({1-cyclopentyl-5-[2-(trifluoromethyl)phenyl]-1H-pyrazol-3-yl}formamido)propanoic acid] was 1170 nM; that for `O=C(O)C[C@@H](NC(=O)c1cc(-c2ccccc2C(F)(F)F)n(C2CCCC2)n1)C(=O)NC1CCOCC1` [compound 559, (3R)-3-({1-cyclopentyl-5-[2-(trifluoromethyl)phenyl]-1H-pyrazol-3-yl}formamido)-3-[(oxan-4-yl)carbamoyl]propanoic acid] was 596 nM.

Consider `O=C(O)C[C@@H](NC(=O)c1cc(-c2ccccc2C(F)(F)F)n(C2CCCC2)n1)C(=O)Nc1ccc(F)cc1` [compound 560, (3R)-3-({1-cyclopentyl-5-[2-(trifluoromethyl)phenyl]-1H-pyrazol-3-yl}formamido)-3-[(4-fluorophenyl)carbamoyl]propanoic acid], for which the EC50 is 738 nM. On the same count and under the same terms, the value for `O=C(N[C@@H]1CC(=O)N(c2ccc(F)cc2)C1=O)c1cc(-c2ccccc2C(F)(F)F)n(C2CCCC2)n1` [compound 563, 1-cyclopentyl-N-[(3R)-1-(4-fluorophenyl)-2,5-dioxopyrrolidin-3-yl]-5-[2-(trifluoromethyl)phenyl]-1H-pyrazole-3-carboxamide] was more than 10000 nM; that for `COCCN(C)C(=O)[C@H](CCc1ccccc1)NC(=O)c1nc(-c2ncccc2C(F)(F)F)n(C2CCCC2)n1` [compound 564] was 982 nM; that for `CC(C)Cn1nc(C(=O)N[C@@H](CCN2CCCC(F)(F)C2)CC(=O)O)cc1-c1ccccc1C(F)(F)F` [compound 565, (3S)-5-(3,3-difluoropiperidin-1-yl)-3-{[1-(2-methylpropyl)-5-[2-(trifluoromethyl)phenyl]-1H-pyrazol-3-yl]formamido}pentanoic acid] was 544 nM.
